Source: ChEMBL document CHEMBL4421726, “Novel prodrug salts” (2016)
Activity calls are given as the source filed them. The rule behind the calls is not given here.

Legend:
Mus musculus [1] = assay: Improvement in neurological outcome in intraluminal monofilament mouse model of middle cerebral artery occlusion at 2 mg/kg, ip loading dose and 1 mg/ml at 8 ul/hr maintenance dose; assay type: functional, organism-based
Mus musculus [2] = assay: Improvement in neurological outcome in intraluminal monofilament mouse model of middle cerebral artery occlusion assessed as reduction in death incidence at 2 mg/kg, ip loading dose and 1 mg/ml at 8 ul/hr maintenance dose; assay type: functional, organism-based
Mus musculus [3] = assay: Improvement in neurological outcome in intraluminal monofilament mouse model of middle cerebral artery occlusion assessed as reduction in severe paralysis progress at 2 mg/kg, ip loading dose and 1 mg/ml at 8 ul/hr maintenance dose; assay type: functional, organism-based
[4] = biological target: Aquaporin-5 (Homo sapiens) (UniProt P55064); assay: Inhibition of AQP5 (unknown origin) expressed in CHO cells assessed as reduction in aquaporin-mediated cell Volume shrinkage at 10 uM by light scattering based assay
[5] = biological target: T1, Aquaporin-1 (Homo sapiens) (UniProt P29972); assay: Inhibition of AQP1 (unknown origin) expressed in CHO cells assessed as reduction in aquaporin-mediated cell Volume shrinkage at 10 uM by light scattering based assay
T1 sequence (whole entry): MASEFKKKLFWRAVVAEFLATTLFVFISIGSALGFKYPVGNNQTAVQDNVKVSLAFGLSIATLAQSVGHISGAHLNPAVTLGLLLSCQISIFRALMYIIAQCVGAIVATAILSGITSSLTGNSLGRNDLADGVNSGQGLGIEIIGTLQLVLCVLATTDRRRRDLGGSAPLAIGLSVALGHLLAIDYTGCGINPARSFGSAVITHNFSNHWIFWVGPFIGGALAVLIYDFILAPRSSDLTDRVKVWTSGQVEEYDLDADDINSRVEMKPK

[6] = biological target: T2, Aquaporin-2 (Homo sapiens) (UniProt P41181); assay: Inhibition of AQP2 (unknown origin) expressed in CHO cells assessed as reduction in aquaporin-mediated cell Volume change at 10 uM by light scattering based assay
T2 sequence (whole entry): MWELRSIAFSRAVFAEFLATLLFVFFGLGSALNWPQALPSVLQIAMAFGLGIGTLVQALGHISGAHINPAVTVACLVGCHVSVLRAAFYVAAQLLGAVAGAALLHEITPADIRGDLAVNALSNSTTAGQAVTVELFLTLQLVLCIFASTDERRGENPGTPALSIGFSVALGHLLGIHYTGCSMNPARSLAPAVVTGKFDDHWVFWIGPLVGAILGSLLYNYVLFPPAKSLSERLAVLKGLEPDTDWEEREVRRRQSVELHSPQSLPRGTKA

[7] = Stability of the compound assessed as compound hydrolysis at room temperature after 5 days; assay type: physicochemical; details: read-out: Drug degradation
[8] = Stability of the compound in pH 9.5 buffer assessed as compound hydrolysis at room temperature; assay type: physicochemical; details: read-out: Drug degradation
[9] = Stability of the compound in solid state assessed as compound hydrolysis; assay type: physicochemical
[10] = Solubility in water; assay type: physicochemical
[11] = Stability of the compound in pH 9.5 buffer assessed as compound hydrolysis measured over 12 hrs; assay type: physicochemical; details: read-out: Drug degradation
Mus musculus [12] = assay: Inhibition of water toxicity in mouse water toxicity model assessed as time to 50% survival for animals at 0.76 mg/kg relative to control; assay type: functional
Mus musculus [13] = assay: Inhibition of water shock-induced cerebral edema in mouse water toxicity model assessed as reduction in extent of cerebral edema at 0.76 mg/kg by MRI analysis relative to control; assay type: functional, organism-based
[14] = biological target: Aquaporin-4 (Homo sapiens) (UniProt P55087); assay: Inhibition of AQP4 (unknown origin) expressed in CHO cells assessed as reduction in water shock-induced aquaporin-mediated cell bursting at 10 uM incubated for 30 mins by calcein-AM fluorescence end-point assay; assay type: cell-based
[15] = Plasma concentration in mouse water toxicity model a at 0.76 mg/kg; assay type: organism-based; details: in vivo
[16] = Drug metabolism in mouse plasma assessed as formation of 2-3,5-bis(trifluoromethyl)phenylcarbamoyl-4-chlorophenyl phosphate bis-ethanolamine salt at 10 mg/kg, ip loading dose and 1 mg/ml at 8 ul/hr maintenance dose measured at 15 mins and 24 hrs post dose by LC-MS/MS analysis; assay type: ADME, organism-based; details: in vivo
[17] = Stability of the compound in pH 7.5 buffer assessed as compound hydrolysis measured over 12 hrs; assay type: physicochemical; details: read-out: Drug degradation
[18] = Drug metabolism in mouse plasma assessed as formation of N-3,5-bis(trifluoromethyl)phenyl-5-chloro-2-hydroxybenzamide measured within 5 mins; assay type: ADME, cell-free
Mus musculus [19] = assay: Drug absorption mouse plasma assessed as rate of drug absorption at 10 mg/kg, ip loading dose and 1 mg/ml at 8 ul/hr maintenance dose measured at 15 mins and 24 hrs post dose by LC-MS/MS analysis; assay type: ADME, organism-based; details: in vivo
[20] = Drug metabolism in mouse plasma assessed as formation of N-3,5-bis(trifluoromethyl)phenyl-5-chloro-2-hydroxybenzamide at 10 mg/kg, ip loading dose and 1 mg/ml at 8 ul/hr maintenance dose measured at 15 mins and 24 hrs post dose by LC-MS/MS analysis; assay type: ADME, organism-based; details: in vivo
[21] = Drug elimination mouse plasma assessed as rate of drug elimination at 10 mg/kg, ip loading dose and 1 mg/ml at 8 ul/hr maintenance dose measured at 15 mins and 24 hrs post dose by LC-MS/MS analysis; assay type: ADME, organism-based
[22] = Drug metabolism in mouse plasma assessed as N-3,5-bis(trifluoromethyl)phenyl-5-chloro-2-hydroxybenzamide level at 10 mg/kg, ip loading dose and 1 mg/ml at 8 ul/hr maintenance dose measured at 15 mins and 24 hrs post dose by LC-MS/MS analysis; assay type: ADME, organism-based; details: in vivo
[23] = Stability of the compound in pH 7.5 buffer assessed as compound hydrolysis at room temperature; assay type: physicochemical; details: read-out: Drug degradation
[24] = Stability of the compound in pH 8.5 buffer assessed as compound hydrolysis at room temperature; assay type: physicochemical; details: read-out: Drug degradation
[25] = Stability of the compound in pH 8.5 buffer assessed as compound hydrolysis measured over 12 hrs; assay type: physicochemical; details: read-out: Drug degradation

Sequence of Aquaporin-4 (Homo sapiens) (P55087 whole entry): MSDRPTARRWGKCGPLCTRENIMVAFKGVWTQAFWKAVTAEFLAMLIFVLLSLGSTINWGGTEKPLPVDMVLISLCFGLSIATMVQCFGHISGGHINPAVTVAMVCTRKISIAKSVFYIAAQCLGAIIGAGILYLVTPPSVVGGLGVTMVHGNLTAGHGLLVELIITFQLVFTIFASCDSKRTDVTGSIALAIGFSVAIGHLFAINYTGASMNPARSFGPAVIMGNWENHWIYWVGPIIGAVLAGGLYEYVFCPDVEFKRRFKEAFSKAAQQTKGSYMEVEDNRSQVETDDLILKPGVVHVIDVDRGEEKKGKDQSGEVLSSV
Sequence of Aquaporin-5 (Homo sapiens) (P55064 whole entry): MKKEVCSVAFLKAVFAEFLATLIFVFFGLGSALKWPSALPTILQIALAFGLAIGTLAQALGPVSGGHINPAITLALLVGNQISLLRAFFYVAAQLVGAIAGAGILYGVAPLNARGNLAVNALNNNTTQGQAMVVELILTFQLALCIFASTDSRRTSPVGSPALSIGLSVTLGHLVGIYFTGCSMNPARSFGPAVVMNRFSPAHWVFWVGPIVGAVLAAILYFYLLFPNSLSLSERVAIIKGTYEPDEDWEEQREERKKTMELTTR

With O=C(Nc1cc(C(F)(F)F)cc(C(F)(F)F)c1)c1cc(Cl)ccc1OP(=O)(O)O [listing 1 of 2 here] the Activity (Mus musculus [1]) was “Active”, the Activity (Mus musculus [2]) was “Active” and the Activity (Mus musculus [3]) was “Active”.
For O=C(Nc1cc(Cl)cc(Cl)c1)c1cc(Cl)ccc1O, the inhibition [4] was “inactive”, the inhibition [5] was “inactive” and the inhibition [6] was 81%.
With O=C(Nc1cc(C(F)(F)F)cc(C(F)(F)F)c1)c1cc(Cl)ccc1OP(=O)(O)O [listing 2 of 2 here] the degraded at 120 h [7] was under 1%.
With O=C(Nc1cc(C(F)(F)F)cc(C(F)(F)F)c1)c1cc(Cl)ccc1OP(=O)([O-])[O-].[Na+].[Na+] the degraded [8] was 1%, the degraded ([9]; solid state, read-out: Drug degradation) was 1% and the solubility [10] was 1000 to 10000 µg/mL. It also gave a degraded at 12 h [11] of under 1%.
With O=C(Nc1cc(C(F)(F)F)cc(C(F)(F)F)c1)c1cc(Cl)ccc1O [IMD-0354] the Time (Mus musculus [12]) was 52 min, the inhibition (Mus musculus [13]) was “Active” and the inhibition [14] was “Active”. For the same compound, the Cp [15] was 0.03 to 0.06 g.
In the case of NCCO.NCCO.O=C(Nc1cc(C(F)(F)F)cc(C(F)(F)F)c1)c1cc(Cl)ccc1OP(=O)(O)O, the Drug metabolism [16] is reported as “Metabolite_Notdetected”, the degraded at 12 h [17] is reported as under 1% and the Drug metabolism [18] is reported as “Metabolite_Detected”. For the same compound, the Drug degradation [9] was 1%, the Ka (Mus musculus [19]) was 0.12 min⁻¹ and the Drug metabolism [20] was “Metabolite_Detected”. For the same compound, the solubility [10] was 10000 µg/mL, the k el [21] was 0.000283 s⁻¹ and the Drug metabolism [22] was 400 ng/mL. For the same compound, the degraded [23] was 1%.
O=C(Nc1cc(C(F)(F)F)cc(C(F)(F)F)c1)c1cc(Cl)ccc1OP(=O)([O-])O.[Na+] showed a Drug degradation [9] of 1%, a degraded [24] of 1% and a degraded at 12 h [25] of under 1%.
